Measured values: paper PMC5546605 (PLoS ONE, 2017)

Columns and labels:
[1] = molecular target: T1, cellular prion protein (PrP^C) (Homo sapiens, UniProt P04156); test: biochemical; type: binding
T1 construct: gene PRNP

[2] = molecular target: T2, cellular prion protein (PrP^C) (Mus musculus, UniProt P04925); test: biochemical; type: binding
T2 construct: gene Prnp
T2 sequence (P04925 23-230 limits assumed): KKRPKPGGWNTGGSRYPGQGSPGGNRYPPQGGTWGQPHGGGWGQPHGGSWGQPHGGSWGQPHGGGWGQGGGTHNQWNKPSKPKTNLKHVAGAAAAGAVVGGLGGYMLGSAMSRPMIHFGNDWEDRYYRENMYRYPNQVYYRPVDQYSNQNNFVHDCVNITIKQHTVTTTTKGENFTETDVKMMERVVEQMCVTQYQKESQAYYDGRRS

CN(C)CCCN1c2ccccc2Sc2ccc(Cl)cc21 [CPZ, chlorpromazine]
Kd [1]: 421 µM
Kd [2]: > 100 µM
